Measurements: patent US8557796B2, “Substituted 1-oxa-2,8-diaza-spiro [4,5] dec-2-ene derivatives and related treatment methods” (Gruenenthal GmbH, priority 2001, dated 2013)

Tests used:
α2A-receptor = biological target: T1, α2A-receptor (Homo sapiens, UniProt P08913); test: α2A-assay, displacement of a marked ligand; format: binding; settings: human receptor membranes, read-out: alpha2A human, 1 μM, % inhibition
T1 construct: purchased
T1 sequence (P08913 1-465): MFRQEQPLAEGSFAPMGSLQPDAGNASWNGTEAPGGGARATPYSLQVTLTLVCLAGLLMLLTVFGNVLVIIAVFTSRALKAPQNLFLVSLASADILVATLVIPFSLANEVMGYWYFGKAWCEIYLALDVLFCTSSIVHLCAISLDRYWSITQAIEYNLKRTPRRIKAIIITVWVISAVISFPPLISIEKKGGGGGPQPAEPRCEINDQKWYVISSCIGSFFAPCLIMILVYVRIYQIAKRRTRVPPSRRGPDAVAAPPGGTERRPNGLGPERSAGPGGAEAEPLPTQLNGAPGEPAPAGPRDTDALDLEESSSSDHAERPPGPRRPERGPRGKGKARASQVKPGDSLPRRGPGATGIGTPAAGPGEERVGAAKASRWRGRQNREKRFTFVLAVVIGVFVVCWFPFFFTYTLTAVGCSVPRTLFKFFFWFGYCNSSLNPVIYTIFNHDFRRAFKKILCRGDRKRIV
Method: The bond was measured here by the displacement of a marked ligand. The test was carried out according to J. P. Devlin's instructions, “High throughput screening—the discovery of bioactive substances”, p. 275-453, Marcel Dekker, New York, 1997. Membranes containing […] (human) were obtained commercially.
Compounds according to the invention were tested in this assay: the measured results are recited in Table 5: […]

NA transporter = biological target: T2, NA transporter (Rattus norvegicus, UniProt Q9WTR4); test: Noradrenalin uptake inhibition (NA-uptake) in synaptosomes; format: biochemical; settings: rat hypothalamus synaptosomes
T2 construct: synaptosomes from rat brain regions were freshly isolated; from tissue; host or cells: P2 synaptosome fraction from hypothalamus of male rat brain
T2 sequence (Q9WTR4 1-597): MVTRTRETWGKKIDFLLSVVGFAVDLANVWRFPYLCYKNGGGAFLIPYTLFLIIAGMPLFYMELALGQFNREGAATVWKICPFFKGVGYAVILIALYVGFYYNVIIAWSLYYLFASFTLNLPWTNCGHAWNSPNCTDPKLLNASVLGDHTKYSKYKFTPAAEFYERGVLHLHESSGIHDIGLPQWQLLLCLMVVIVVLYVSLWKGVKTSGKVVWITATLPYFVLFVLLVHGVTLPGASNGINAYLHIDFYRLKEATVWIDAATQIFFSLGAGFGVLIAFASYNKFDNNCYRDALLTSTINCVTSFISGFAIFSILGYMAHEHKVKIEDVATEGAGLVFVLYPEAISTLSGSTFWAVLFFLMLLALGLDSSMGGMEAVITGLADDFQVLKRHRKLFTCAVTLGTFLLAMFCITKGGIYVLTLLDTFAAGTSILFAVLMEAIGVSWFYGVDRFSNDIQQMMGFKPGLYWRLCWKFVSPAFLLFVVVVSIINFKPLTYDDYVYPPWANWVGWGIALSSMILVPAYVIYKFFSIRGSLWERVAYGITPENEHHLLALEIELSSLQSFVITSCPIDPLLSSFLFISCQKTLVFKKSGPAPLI
Source text: Tests on Noradrenalin Uptake Inhibition (NA-Uptake Inhibition)
In order to be able to carry out these in vitro studies, synaptosomes from rat brain regions were freshly isolated.

5HT-uptake = biological target: T3, 5HT-uptake (Rattus norvegicus, UniProt P31652); test: Serotonin uptake inhibition (5HT uptake) in synaptosomes; format: biochemical; settings: rat brain synaptosomes
T3 construct: synaptosomes from rat brain regions were freshly isolated; from tissue; host or cells: P2 synaptosome fraction from rat brain regions
T3 sequence (P31652 whole entry): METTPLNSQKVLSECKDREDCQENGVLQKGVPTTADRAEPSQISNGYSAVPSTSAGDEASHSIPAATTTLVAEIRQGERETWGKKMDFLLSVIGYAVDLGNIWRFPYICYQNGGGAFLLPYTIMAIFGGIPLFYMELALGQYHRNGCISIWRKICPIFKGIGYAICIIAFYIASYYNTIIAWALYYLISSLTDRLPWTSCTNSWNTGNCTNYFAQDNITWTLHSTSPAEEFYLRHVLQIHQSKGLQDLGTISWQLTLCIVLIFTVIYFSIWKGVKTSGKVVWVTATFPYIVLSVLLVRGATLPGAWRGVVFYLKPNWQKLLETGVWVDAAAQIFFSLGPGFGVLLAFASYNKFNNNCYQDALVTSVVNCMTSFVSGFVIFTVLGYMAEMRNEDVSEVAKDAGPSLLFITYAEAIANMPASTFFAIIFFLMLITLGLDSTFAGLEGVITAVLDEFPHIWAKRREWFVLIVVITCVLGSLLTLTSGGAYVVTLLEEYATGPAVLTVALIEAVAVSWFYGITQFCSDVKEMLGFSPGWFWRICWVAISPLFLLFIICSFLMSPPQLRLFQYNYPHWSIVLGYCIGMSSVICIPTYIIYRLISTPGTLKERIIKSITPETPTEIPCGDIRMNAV

Structure (SMILES) | inhibition at 1 µM (α2A-receptor) [%] | inhibition at 10 µM (NA transporter) [%] | inhibition at 10 µM (5HT-uptake) [%] | NA-uptake, 10 μM, % inhibition (NA transporter) [%] | 5HT-uptake, 10 μM, % inhibition (5HT-uptake) [%]
COc1ccccc1C1CCN(C(=O)C2=NOC3(CCN(S(=O)(=O)c4ccc(Cl)s4)CC3)C2)CC1 [Example 151, [8-(5-chloro-thiophene-2-sulphonyl)-1-oxa-2,8-diaza-spiro[4,5]dec-2-en-3-yl]-[4-(2-methoxy-phenyl)-piperidin-1-yl]-methanone] | 33 | – | – | – | –
O=C(NCC1COc2ccccc2O1)C1=NOC2(CCN(S(=O)(=O)c3cccs3)CC2)C1 (centres unmarked) [Example 21, 8-(thiophene-2-sulphonyl)-1-oxa-2,8-diaza-spiro[4,5]dec-2-ene-3-carboxylic acid (2,3-dihydro-benzo[1,4]dioxin-2-ylmethyl)-amide] | 31 | 61 | – | – | –
Cc1ccccc1N1CCN(C(=O)C2=NOC3(CCN(S(=O)(=O)c4cccs4)CC3)C2)CC1 [Example 27, [8-(thiophene-2-sulphonyl)-1-oxa-2,8-diaza-spiro[4,5]dec-2-en-3-yl]-(4-o-tolyl-piperazin-1-yl)-methanone] | 37 | 80 | 49 | – | –
Cc1ccc(S(=O)(=O)N2CCC3(CC2)CC(C(=O)N2CCN(c4ccc(C)cc4C)CC2)=NO3)cc1 [Example 33, [4-(2,4-dimethyl-phenyl)-piperazin-l-yl]-[8-(toluene-4-sulphonyl)-1-oxa-2,8-diazaspiro[4,5]dec-2-en-3-yl]methanone] | – | – | – | 42 | 57
O=C(NC1CCN(Cc2ccc3ccccc3c2)C1)C1=NOC2(CCN(S(=O)(=O)c3ccc(Cl)s3)CC2)C1 (centres unmarked) [Example 50, 8-(5-chloro-thiophene-2-sulphonyl)-1-oxa-2,8-diaza-spiro[4,5]dec-2-ene-3 carboxylic acid (1-naphthalen-2-ylmethyl-pyrrolidin-3-yl)-amide] | – | 50 | 57 | – | –
O=C(NCCc1ccc(Cl)c(Cl)c1)C1=NOC2(CCN(S(=O)(=O)c3ccc(OC(F)(F)F)cc3)CC2)C1 [Example 165] | – | – | – | 55 | 41
Cc1ccc(S(=O)(=O)N2CCC3(CC2)CC(C(=O)NCCc2ccc(Cl)c(Cl)c2)=NO3)cc1 [Example 9] | – | – | – | 77 | 75
O=C(C1=NOC2(CCN(S(=O)(=O)Cc3ccccc3)CC2)C1)N1CCN(CCCc2ccccc2)CC1 [Example 69] | – | – | – | 56 | 63
CN(Cc1cccnc1)C(=O)C1=NOC2(CCN(S(=O)(=O)c3cccc(C(F)(F)F)c3)CC2)C1 [Example 101, 8-(3-trifluoromethyl-benzenesulphonyl)-1-oxa-2,8-diaza-spiro[4,5]dec-2-ene-3 carboxylic acid methyl-pyridin-3-ylmethyl-amide] | – | 43 | 46 | – | –
O=C(C1=NOC2(CCN(S(=O)(=O)c3cccs3)CC2)C1)N1CCN(C2CCCCCC2)CC1 [Example 3, (4-cycloheptyl-piperazin-l-yl)-[8-(thiophene-2-sulphonyl)-1-oxa-2,8-diaza-spiro [4,5]dec-2-en-3-yl]-methanone] | – | – | – | 59 | 51
